From PMC5840262, “Design, Synthesis and Evaluation of Branched RRWQWR-Based Peptides as Antibacterial Agents Against Clinically Relevant Gram-Positive and Gram-Negative Pathogens” (Frontiers in Microbiology, 2018)
Converted amounts (≈) assume the structure as drawn. Bridge positions count the residues as written; N and C are the ends. Square brackets hold non-standard residues; d marks the D form. Peptide text beside a SMILES is read from it. I, II: the chains in the order shown. Ahx = NCCCCCC(=O)O

Key:
Assay type in all cases: cell-based
[1] = tested on: Staphylococcus aureus clinical isolate 48,575
Protocol: (§1) For the clinical isolates, we used 20 different isolates from the Public Health Reference Laboratory collection of the Secretaría de Salud del Distrito (SdSD; Bogotá, Colombia). The samples were collected from June to December 2016. For each isolate, the patient parameters (age, gender and location) and the culture site were recorded for epidemiologic monitoring (Table 1). All isolates had been previously tested for antibiotic sensitivity at the Public Health Microbiology Laboratory using either the Phoenix™ system (Gram-positive) or the VITEK 2 system (Gram-negative).
(§2) We screened all five peptides against the ATCC reference strains and the clinical isolates according to Method M7-A7 of the National Committee for Clinical Laboratory Standards (CLSI, [2007]). The MIC50 and MBC values were determined using a broth microdilution and growth inhibition method previously reported by Leon-Calvijo et al. ([2015]), with some modifications (Wiegand et al., [2008]). Briefly, the MIC50 experiments comprised a liquid-inhibition growth assay in a sterile, untreated, 96-well flat-bottom tissue culture plate. The bacteria were cultured overnight n Mueller Hinton agar; three colonies were transferred to 8 mL of Mueller Hilton broth and incubated at 37°C until the mid-exponential phase of growth. The turbidity of the cultures was measured and adjusted spectrophotometrically to a McFarland standard of 0.5, and then diluted to a final concentration of 5 × 10^7 colony forming units (CFU) per well. Stock solutions (2,000 μM) of each test peptide were serially diluted to final concentrations (per well) of 200, 100, 50, 25, 12.5, and 6.25 μM. Each concentration was evaluated in duplicate and each assay was performed in triplicate.
(§3) Wells containing Mueller Hilton broth with bacterial inoculum only served as bacterial-growth controls. Additional controls included Mueller Hilton broth alone (as blank) and Mueller Hilton broth with ciprofloxacin (2 μg/mL; as positive control). The microplate was incubated for 24 h at 37°C, and growth inhibition was measured by monitoring the optical density at 620 nm (OD620). The MIC50 was defined as the peptide concentration at which bacterial growth was inhibited by 50%.
(§4) To determine the MBC, an aliquot from each well of the MIC50 assay was spread onto Mueller Hilton agar. After 18 h at 37°C, the concentration that inhibited bacterial growth was determined. Each of these tests was performed four times. MBC was defined as the lowest concentration of peptide at which the number of bacteria was reduced by 99.9% in vitro (European Committee for Antimicrobial Susceptibility Testing, [2000]).

[2] = tested on: Klebsiella pneumoniae clinical isolate 51,048
Protocol: as §1, §2, §3, §4

[3] = tested on: Pseudomonas aeruginosa clinical isolate 48,458
Protocol: as §1, §2, §3, §4

[4] = tested on: Pseudomonas aeruginosa clinical isolate 48,221
Protocol: as §1, §2, §3, §4

[5] = tested on: Staphylococcus aureus clinical isolate 43,337
Protocol: as §1, §2, §3, §4

[6] = tested on: Enterococcus faecium clinical isolate 550
Protocol: as §1, §2, §3, §4

[7] = tested on: Pseudomonas aeruginosa clinical isolate 47,661
Protocol: as §1, §2, §3, §4

[8] = tested on: Enterococcus faecium clinical isolate 1,040
Protocol: as §1, §2, §3, §4

[9] = tested on: Klebsiella pneumoniae clinical isolate 50,181
Protocol: as §1, §2, §3, §4

[10] = tested on: Staphylococcus aureus clinical isolate 43,062
Protocol: as §1, §2, §3, §4

[11] = tested on: Klebsiella pneumoniae clinical isolate 51,009
Protocol: as §1, §2, §3, §4

[12] = tested on: Klebsiella pneumoniae clinical isolate 50,424
Protocol: as §1, §2, §3, §4

[13] = tested on: Enterococcus faecium clinical isolate 1,225
Protocol: as §1, §2, §3, §4

[14] = tested on: Pseudomonas aeruginosa clinical isolate 48,220
Protocol: as §1, §2, §3, §4

[15] = tested on: Staphylococcus aureus clinical isolate 52,013
Protocol: as §1, §2, §3, §4

[16] = tested on: Pseudomonas aeruginosa clinical isolate 48,526
Protocol: as §1, §2, §3, §4

`N=C(N)NCCC[C@H](NC(=O)[C@H](Cc1c[nH]c2ccccc12)NC(=O)[C@H](CCC(N)=O)NC(=O)[C@H](Cc1c[nH]c2ccccc12)NC(=O)[C@H](CCCNC(=N)N)NC(=O)[C@@H](N)CCCNC(=N)N)C(=O)NCCCC[C@H](NC(=O)[C@H](CCCNC(=N)N)NC(=O)[C@H](Cc1c[nH]c2ccccc12)NC(=O)[C@H](CCC(N)=O)NC(=O)[C@H](Cc1c[nH]c2ccccc12)NC(=O)[C@H](CCCNC(=N)N)NC(=O)[C@@H](N)CCCNC(=N)N)C(=O)NCCCCCC(N)=O` [LfcinB (20–25)2] (I: H-RRWQWRK[Ahx]-NH2 / II: H-RRWQWR; amide I:7-II:C; N-terminus assumed) showed an MBC ([1]; clinical isolate 48,575, 18 h) of 25.0 µM (≈ 54.9 µg/mL), an MIC50 ([1]; clinical isolate 48,575, 24 h) of 13.4 µM (≈ 29.4 µg/mL) and an MBC ([2]; clinical isolate 51,048, 18 h) of 100.0 µM (≈ 220 µg/mL). It also gave an MIC50 ([2]; clinical isolate 51,048, 24 h) of 5.7 µM (≈ 12.5 µg/mL), an MBC ([3]; clinical isolate 48,458, 18 h) greater than 100 µM and an MIC50 ([3]; clinical isolate 48,458, 24 h) of 75.0 µM (≈ 165 µg/mL). The MBC ([4]; clinical isolate 48,221, 18 h) was greater than 100 µM, the MIC50 ([4]; clinical isolate 48,221, 24 h) was 64.2 µM (≈ 141 µg/mL) and the MBC ([5]; clinical isolate 43,337, 18 h) was 25.0 µM (≈ 54.9 µg/mL). For the same compound, the MIC50 ([5]; clinical isolate 43,337, 24 h) was 13.5 µM (≈ 29.7 µg/mL), the MBC ([6]; clinical isolate 550, 18 h) was greater than 100 µM and the MIC50 ([6]; clinical isolate 550, 24 h) was greater than 100 µM. The MBC ([7]; clinical isolate 47,661, 18 h) was greater than 100 µM, the MIC50 ([7]; clinical isolate 47,661, 24 h) was 13.4 µM (≈ 29.4 µg/mL) and the MBC ([8]; clinical isolate 1,040, 18 h) was greater than 100 µM. For the same compound, the MIC50 ([8]; clinical isolate 1,040, 24 h) was greater than 100 µM, the MBC ([9]; clinical isolate 50,181, 18 h) was 100.0 µM (≈ 220 µg/mL) and the MIC50 ([9]; clinical isolate 50,181, 24 h) was 6.6 µM (≈ 14.5 µg/mL). For the same compound, the MBC ([10]; clinical isolate 43,062, 18 h) was 50.0 µM (≈ 110 µg/mL), the MIC50 ([10]; clinical isolate 43,062, 24 h) was 13.5 µM (≈ 29.7 µg/mL) and the MBC ([11]; clinical isolate 51,009, 18 h) was 25.0 µM (≈ 54.9 µg/mL). It also gave an MIC50 ([11]; clinical isolate 51,009, 24 h) of 5.6 µM (≈ 12.3 µg/mL), an MBC ([12]; clinical isolate 50,424, 18 h) greater than 100 µM and an MIC50 ([12]; clinical isolate 50,424, 24 h) of 5.8 µM (≈ 12.7 µg/mL). It also gave an MBC ([13]; clinical isolate 1,225, 18 h) greater than 100 µM, an MIC50 ([13]; clinical isolate 1,225, 24 h) greater than 100 µM and an MBC ([14]; clinical isolate 48,220, 18 h) of 50.0 µM (≈ 110 µg/mL). It also gave an MIC50 ([14]; clinical isolate 48,220, 24 h) of 50.0 µM (≈ 110 µg/mL), an MBC ([15]; clinical isolate 52,013, 18 h) of 25.0 µM (≈ 54.9 µg/mL) and an MIC50 ([15]; clinical isolate 52,013, 24 h) of 12.6 µM (≈ 27.7 µg/mL). For the same compound, the MBC ([16]; clinical isolate 48,526, 18 h) was greater than 100 µM and the MIC50 ([16]; clinical isolate 48,526, 24 h) was 36.3 µM (≈ 79.7 µg/mL).
